Reference: ChEMBL document CHEMBL1201862, “PubChem BioAssay data set” (2004)
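Five concentrations, 48 hours, 96-well plates. Here, GI50 denotes the concentration required for 50% inhibition of growth.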 Activity calls are given as the source filed them. Cut-off read from the data, not from the text of the source: active = GI50 up to about 1.1 µM and inactive = higher.

Key:
Assay in all cases: NCI tumour cell line growth inhibition, 48 h
TK-10 = test system: TK-10
K562 = test system: K562
RXF 393 = test system: RXF 393
CCRF-CEM = test system: CCRF-CEM
SK-OV-3 = test system: SK-OV-3
HCC 2998 = test system: HCC 2998
DMS-273 = test system: DMS-273
T47D = test system: T47D
HL-60 = test system: HL-60
SNB-19 = test system: SNB-19
DU-145 = test system: DU-145
KM12 = test system: KM12
RXF 631 = test system: RXF 631
Malme-3M = test system: Malme-3M
HT-29 = test system: HT-29
A498 = test system: A498
CAKI-1 = test system: CAKI-1
NCI-H226 = test system: NCI-H226
SW-620 = test system: SW-620
SF-295 = test system: SF-295
MDA-MB-435 = test system: MDA-MB-435
XF498 = test system: XF498
786-0 = test system: 786-0
M19-MEL = test system: M19-MEL
NCI-H522 = test system: NCI-H522
EKVX = test system: EKVX
MOLT-4 = test system: MOLT-4
SR = test system: SR
ACHN = test system: ACHN
SNB-78 = test system: SNB-78
KM-20L2 = test system: KM-20L2
RPMI-8226 = test system: RPMI-8226
MDA-N = test system: MDA-N
LOX IMVI = test system: LOX IMVI
DMS-114 = test system: DMS-114
DLD-1 = test system: DLD-1
LXFL 529 = test system: LXFL 529
MDA-MB-231 = test system: MDA-MB-231
MCF7 = test system: MCF7
HOP-92 = test system: HOP-92
NCI-H460 = test system: NCI-H460
UACC-62 = test system: UACC-62
OVCAR-5 = test system: OVCAR-5
SF-268 = test system: SF-268
HCT-116 = test system: HCT-116
HOP-62 = test system: HOP-62
HCT-15 = test system: HCT-15
OVCAR-3 = test system: OVCAR-3
COLO 205 = test system: COLO 205
SK-MEL-5 = test system: SK-MEL-5
Hs-578T = test system: Hs-578T
PC-3 = test system: PC-3
NCI/ADR-RES = test system: NCI/ADR-RES
SK-MEL-28 = test system: SK-MEL-28
UO-31 = test system: UO-31
IGROV-1 = test system: IGROV-1
M14 = test system: M14
U-251 = test system: U-251
HOP-18 = test system: HOP-18
A549 = test system: A549
UACC-257 = test system: UACC-257
NCI-H23 = test system: NCI-H23
OVCAR-8 = test system: OVCAR-8
SF-539 = test system: SF-539
BT-549 = test system: BT-549
OVCAR-4 = test system: OVCAR-4
SK-MEL-2 = test system: SK-MEL-2
SN12C = test system: SN12C
SNB-75 = test system: SNB-75

CCCCCCCCC(=O)NCCN(CCN)C(=O)CCCCCCCC
GI50 (TK-10): 14.6 µM (inactive) | GI50 (K562): 2.18 µM (inactive) | GI50 (RXF 393): 13.5 µM (inactive) | GI50 (CCRF-CEM): 2.38 µM (inactive) | GI50 (SK-OV-3): 15.5 µM (inactive) | GI50 (HCC 2998): 6.14 µM (inactive) | GI50 (DMS-273): 2.87 µM (inactive) | GI50 (T47D): 14.9 µM (inactive) | GI50 (HL-60): 0.65 µM (active) | GI50 (SNB-19): 8.55 µM (inactive) | GI50 (DU-145): 13.6 µM (inactive) | GI50 (KM12): 2.48 µM (inactive) | GI50 (RXF 631): 4.08 µM (inactive) | GI50 (Malme-3M): 17.9 µM (inactive) | GI50 (HT-29): 3.3 µM (inactive) | GI50 (A498): 21.9 µM (inactive) | GI50 (CAKI-1): 17.5 µM (inactive) | GI50 (NCI-H226): 18.5 µM (inactive) | GI50 (SW-620): 2.34 µM (inactive) | GI50 (SF-295): 4.99 µM (inactive) | GI50 (MDA-MB-435): 13.7 µM (inactive) | GI50 (XF498): 2.42 µM (inactive) | GI50 (786-0): 4.9 µM (inactive) | GI50 (M19-MEL): 5.74 µM (inactive) | GI50 (NCI-H522): 2.65 µM (inactive) | GI50 (EKVX): 18.2 µM (inactive) | GI50 (MOLT-4): 3.78 µM (inactive) | GI50 (SR): 2.69 µM (inactive) | GI50 (ACHN): 8.67 µM (inactive) | GI50 (SNB-78): 10.4 µM (inactive) | GI50 (KM-20L2): 5.04 µM (inactive) | GI50 (RPMI-8226): 2.49 µM (inactive) | GI50 (MDA-N): 5.6 µM (inactive) | GI50 (LOX IMVI): 3.85 µM (inactive) | GI50 (DMS-114): 4.79 µM (inactive) | GI50 (DLD-1): 5.37 µM (inactive) | GI50 (LXFL 529): 3.36 µM (inactive) | GI50 (MDA-MB-231): 3.31 µM (inactive) | GI50 (MCF7): 4.75 µM (inactive) | GI50 (HOP-92): 14 µM (inactive) | GI50 (NCI-H460): 5.86 µM (inactive) | GI50 (UACC-62): 10.7 µM (inactive) | GI50 (OVCAR-5): 15.8 µM (inactive) | GI50 (SF-268): 6.87 µM (inactive) | GI50 (HCT-116): 3.74 µM (inactive) | GI50 (HOP-62): 15.3 µM (inactive) | GI50 (HCT-15): 5.19 µM | GI50 (OVCAR-3): 15.2 µM (inactive) | GI50 (COLO 205): 3.29 µM (inactive) | GI50 (SK-MEL-5): 10.3 µM (inactive) | GI50 (Hs-578T): 8.38 µM (inactive) | GI50 (PC-3): 10.7 µM (inactive) | GI50 (NCI/ADR-RES): 13.1 µM (inactive) | GI50 (SK-MEL-28): 14.9 µM (inactive) | GI50 (UO-31): 12.7 µM (inactive) | GI50 (IGROV-1): 7.46 µM (inactive) | GI50 (M14): 8.81 µM (inactive) | GI50 (U-251): 3.37 µM (inactive) | GI50 (HOP-18): 16.7 µM (inactive) | GI50 (A549): 13.1 µM (inactive) | GI50 (UACC-257): 18.4 µM (inactive) | GI50 (NCI-H23): 17.3 µM (inactive) | GI50 (OVCAR-8): 10.7 µM (inactive) | GI50 (SF-539): 5.7 µM (inactive) | GI50 (BT-549): 3.44 µM (inactive) | GI50 (OVCAR-4): 8.17 µM (inactive) | GI50 (SK-MEL-2): 15.1 µM (inactive) | GI50 (SN12C): 10.8 µM (inactive) | GI50 (SNB-75): 7 µM (inactive)
